Data as given in US10287292B2, “CXCR7 antagonists” (CHEMOCENTRYX, INC., priority 2012, dated 2019).

Key:
[1] = target: T1, CXCR7 receptor (Homo sapiens (Human), UniProt P25106); assay: Serum Binding Analysis: displacement of 125I-labeled SDF-1 from CXCR7 in 100% human serum; details: 125I SDF-1 displacement in 100% human serum, MCF-7 and/or MDA-MB-435S CXCR7 transfected cells, 3 hrs at 4° C.; read-out: Avg Ser IC50
Protocol: (§1) The compounds were combined with cells expressing the CXCR7 receptor (e.g., MCF cells or cells transfected to express CXCR7) in the presence of the 125 I-labeled SDF-1 chemokine as detailed in Determination of IC50 values. Reagents and Cells (see below). The ability of the compounds to displace the labeled chemokine from the CXCR7 receptor sites at multiple concentrations was then determined with the screening process.
In Table 1, Avg Bind IC50 refers to the Buffer Binding Analysis described below, while Avg Ser IC50 refers to the Serum Binding Analysis described below. All compounds were prepared as described in the Examples above, or by related methods substituting readily available starting materials.
(§2) ^125I-labeled SDF-1 was purchased from Perkin-Elmer Life Sciences, Inc. (Boston, Mass.). The MCF-7 (adenocarcinoma; mammary gland) cell line was obtained from the American Type Culture Collection (ATCC, Manassas, Va.) or and was cultured in DMEM (Mediatech, Herndon, Va.) supplemented with 10% fetal bovine serum (FBS) (HyClone Logan, Utah) and bovine insulin (0.01 mg/mL) (Sigma. St. Louis, Mo.) at 37° C. in a humidified incubator at a 5% CO2/air mixture. CXCR7 transfected MDA-MB-435S were produced as described below. MDA-MB-435S human breast cancer line, was purchased from ATCC, and cultured in DMEM/10% FBS medium. The complete coding sequence of the gene encoding CXCR7 (a.k.a. CCXCKR2, hRDC1), was isolated from MCF-7 cells using μMACs mRNA isolation kit (Miltenyi Biotec, Auburn, Calif.). DNA contamination was removed by DNase digestion via RNeasy columns (Qiagen, Inc., Valencia, Calif.) and cDNA was generated using GeneAmp RNA PCR Core Kit (Applied Biosystems, Foster City. Calif.). PCR of cDNA samples was performed using Taq PCR Master Mix kit (Qiagen. Inc.) and hRDC1 primers harboring 5′ and 3′ Not I sites (hRDC1F 5′ […]-3, hRDC1R 5′-[…]-3′) Not I digested PCR product was ligated into Not I digested pcDNA3.1(+)(Invitrogen, Carlsbad, Calif.) and screened for orientation and sequence confirmed. Plasmid DNA was then isolated from overnight bacterial cultures by Maxiprep (Qiagen, Inc.). Plasmid DNA (10 μg) was added to MDA-MB-435s cells and cells were electroporated (0.22 kV, 960 uF) via Gene Pulser (Biorad laboratories, Hercules, Calif.). 48 hr post-electroporation, cells were transferred to selection medium (600 ug/ml G418).
In order to more properly assess the binding efficacy of the compounds, radioligand binding assays were carried out in the presence of 100% human serum to more accurately reflect the in vivo environment. […] Target compounds were tested to determine their ability to bind with CXCR7 sites on MCF-7 and/or MDA-MB-435S CXCR7 transfected cells. Efficiency-maxim/zed radioligand binding using filtration protocols as described in Dairaghi D J, et al., HHV8-encoded vMIP-I selectively engages chemokine receptor CCR5. Agonist and antagonist profiles of viral chemokines., J. Biol. Chem. 1999 Jul. 30; 274(31): 21569-74 and Gosling J, et al., Cutting edge: identification of a novel chemokine receptor that binds dendritic cell- and T cell-active chemokines including ELC, SLC, and TECK, J. Immunol. 2000 Mar. 15; 164(6):2851-6 was used.
In these assays, MCF-7 and/or MDA-MB-435S cells were interrogated with the target compounds and the ability of these compounds to displace 125 I radiolabeled SDF-1 was assessed using the protocol described in Dairaghi and Gosling. The target compounds were added to the plate to the indicated concentration followed by addition of cells and radiolabeled chemokine (125I SDF-1), both in the following medium (human AB serum with 10 mM HEPES added to stabilize at pH 7.4). All assays were then incubated for 3 hrs at 4° C. with gentle agitation.

[2] = target: T1, CXCR7 receptor; assay: Buffer Binding Analysis: displacement of 125I-labeled SDF-1 from CXCR7; details: 125I SDF-1 displacement, buffer binding medium, MCF-7 and/or MDA-MB-435S CXCR7 transfected cells, 3 hr at 4° C.; read-out: Avg Bind IC50
Protocol: as §1
Compounds that were deemed effective modulators were able to displace at least 50% of the SDF-1 from the CXCR7 receptor at concentrations at or below 15 micromolar (μM) but >2500 nM (+); and more preferably at concentrations from >500 nM to ≤2500 nM (++). At present, especially preferred compounds can displace at least 50% of the SDF-1 from the CXCR7 receptor at concentrations at or below 500 nM (+++). Exemplary compounds that met these criteria are reproduced in Table 1 and the Examples above. In Table 1, Avg Bind IC50 refers to the Buffer Binding Analysis described below, while Avg Ser IC50 refers to the Serum Binding Analysis described below. All compounds were prepared as described in the Examples above, or by related methods substituting readily available starting materials.
as §2
Target compounds can be tested to determine their ability to bind with CXCR7 sites on MCF-7 and/or MDA-MB-435S CXCR7 transfected cells. Efficiency-maxim/zed radioligand binding using filtration protocols as described in Dairaghi D J, et al., HHV8-encoded vMIP-I selectively engages chemokine receptor CCR5. Agonist and antagonist profiles of viral chemokines., J. Biol. Chem. 1999 Jul. 30; 274(31): 21569-74 and Gosling J. et al., Cutting edge: identification of a novel chemokine receptor that binds dendritic cell-and T cell-active chemokines including ELC. SLC, and TECK., J. Immunol. 2000 Mar. 15; 164(6):2851-6 was used.
In these assays, MCF-7 and/or MDA-MB-435S cells are interrogated with the target compounds and the ability of these compounds to displace ^125I radiolabeled SDF-1 assessed using the protocol described in Dairaghi and Gosling. […]

T1 sequence (P25106 whole entry): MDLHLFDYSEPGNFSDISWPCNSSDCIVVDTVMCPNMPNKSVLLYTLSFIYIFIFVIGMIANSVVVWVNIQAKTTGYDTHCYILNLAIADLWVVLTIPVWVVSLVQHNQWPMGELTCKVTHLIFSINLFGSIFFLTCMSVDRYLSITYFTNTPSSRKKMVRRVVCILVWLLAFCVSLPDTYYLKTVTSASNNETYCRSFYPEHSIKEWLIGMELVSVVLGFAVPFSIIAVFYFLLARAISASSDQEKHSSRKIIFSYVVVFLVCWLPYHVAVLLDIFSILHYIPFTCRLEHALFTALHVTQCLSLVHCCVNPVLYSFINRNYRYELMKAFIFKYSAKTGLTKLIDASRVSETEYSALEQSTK

Row | SMILES | IC50 [1] [µM] | IC50 [2] [µM]
1 | CC(C)c1cnc(C(=O)NC2(CO)CCN(c3nccn4cccc34)C2)nc1 (centres unmarked) [Compound 1.060] | ≤ 0.5 | –
2 | CC(C)c1cnc(C(=O)N[C@H]2CCN(c3nccn4cnnc34)C2)nc1 [Compound 1.061] | 0.5 to 2.5 | –
3 | O=C(NC1CN(c2nccn3cccc23)C[C@@H]1O)c1ccn(-c2ccc(F)cc2)n1 (some centres unmarked) [Compound 1.062] | ≤ 0.5 | –
4 | Cc1cnc(C(=O)N[C@H]2CCN(c3nccn4cccc34)C2)nc1 [Compound 1.063] | 0.5 to 2.5 | –
5 | CC(C)c1cnc(C(=O)N[C@H]2CCN(c3nccn4ccnc34)C2)nc1 [Compound 1.064] | ≤ 0.5 | –
6 | CCc1cnc(C(=O)N[C@H]2CCN(c3nccn4cccc34)C2)nc1 [Compound 1.065] | ≤ 0.5 | –
7 | O=C(N[C@H]1CCN(c2nccn3cnnc23)C1)c1csc(-c2ccccc2)n1 [Compound 1.066] | ≤ 0.5 | –
8 | O=C(N[C@H]1CCN(c2nccn3ncnc23)C1)c1ccn(-c2ccc(F)cc2)n1 [Compound 1.067] | ≤ 0.5 | –
9 | O=C(N[C@H]1CCN(c2nccn3cnnc23)C1)c1coc(-c2ccccc2)n1 [Compound 1.069] | ≤ 0.5 | –
10 | O=C(N[C@H]1CCN(c2nccn3ccnc23)C1)c1coc(-c2ccccc2)n1 [Compound 1.070] | ≤ 0.5 | –
11 | O=C(N[C@H]1CCN(c2nccn3cccc23)C1)c1ncc(C2CC2)cn1 [Compound 1.071] | ≤ 0.5 | –
12 | O=C(NC1(CO)CCN(c2nccn3cccc23)C1)c1csc(N2CCC(O)CC2)n1 (centres unmarked) [Compound 1.072] | ≤ 0.5 | –
13 | O=C(NC1(CO)CCN(c2nccn3cccc23)C1)c1ccn(-c2ccc(F)cc2)n1 (centres unmarked) [Compound 1.073] | ≤ 0.5 | –
14 | O=C(NC1(CO)CCN(c2nccn3cccc23)C1)c1ccn(-c2ccc(Cl)cc2)n1 (centres unmarked) [Compound 1.074] | ≤ 0.5 | –
15 | O=C(N[C@H]1CCN(c2nccn3ccnc23)C1)c1cnc(N2CCC(O)CC2)cn1 [Compound 1.075] | 2.5 to 15 | 0.5 to 2.5
16 | O=C(N[C@H]1CCN(c2nccn3cccc23)C1)c1ncc(-c2ccc(F)cc2)cn1 [Compound 1.076] | ≤ 0.5 | ≤ 0.5
17 | CC(C)c1cnc(C(=O)N[C@H]2CCN(c3nccn4cccc34)C2)nc1 [Compound 1.077] | ≤ 0.5 | ≤ 0.5
18 | O=C(N[C@H]1CCN(c2nccn3cnnc23)C1)c1csc(N2CCC(O)CC2)n1 [Compound 1.078] | ≤ 0.5 | ≤ 0.5
19 | O=C(N[C@H]1CCN(c2nccn3ccnc23)C1)c1csc(N2CCC(O)CC2)n1 [Compound 1.079] | ≤ 0.5 | ≤ 0.5
20 | Cc1ccccc1-c1nc(C(=O)N[C@H]2CCN(c3nccn4cccc34)C2)co1 [Compound 1.080] | 0.5 to 2.5 | ≤ 0.5
21 | O=C(N[C@H]1CCN(c2nccn3cccc23)C1)c1ccn(-c2ccc(Cl)cn2)n1 [Compound 1.081] | 0.5 to 2.5 | ≤ 0.5
22 | O=C(N[C@H]1CCN(c2nccn3cccc23)C1)c1noc(C2CCOCC2)n1 [Compound 1.082] | 0.5 to 2.5 | ≤ 0.5
23 | O=C(N[C@H]1CCN(c2nccn3cccc23)C1)c1nnc(-c2ccccc2)[nH]1 [Compound 1.083] | 0.5 to 2.5 | ≤ 0.5
24 | O=C(N[C@H]1CCN(c2nccn3cnnc23)C1)c1ccn(-c2ccc(F)cc2)n1 [Compound 1.084] | ≤ 0.5 | ≤ 0.5
25 | Cc1ccc2nc(C(=O)N[C@H]3CCN(c4nccn5cccc45)C3)ncc2c1 [Compound 1.085] | ≤ 0.5 | ≤ 0.5
26 | O=C(N[C@H]1CCN(c2nccn3ccnc23)C1)c1ccn(C2CCOCC2)n1 [Compound 1.086] | 0.5 to 2.5 | 0.5 to 2.5
27 | O=C(N[C@H]1CCN(c2nccn3cnnc23)C1)c1ccn(C2CCOCC2)n1 [Compound 1.087] | 0.5 to 2.5 | 2.5 to 15
28 | O=C(N[C@H]1CCN(c2nccn3cccc23)C1)c1ccn(C2CCOCC2)n1 [Compound 1.088] | ≤ 0.5 | ≤ 0.5
29 | O=C(N[C@H]1CCN(c2nccn3cnnc23)C1)c1ncn(-c2ccc(F)cc2)n1 [Compound 1.089] | ≤ 0.5 | ≤ 0.5
